Results published in article PMC3836617 (Pharmaceutics, 2013).
Where “and” joins values, the source holds several entries; their conditions need not be identical. Equal entries are not always repeated. Where two headings read alike, the source gives them in different places.

Assays:
[1] = Hydrolysis in rat testis microsomes; type: in vitro ADME; conditions: pH 7.4; for Km: testis microsomes 10 μg/mL for PNPA, 5 μg/mL for PNPB; for Vmax: testis microsomes
Procedure: (§1) The excised liver, kidney, and testis were washed with ice-cold 0.15 M KCl, and finely minced using scissors. Minced tissues were homogenized with 3 volumes of 50 mM HEPES buffer (pH 7.4) containing 0.15 M KCl in a Potter–Elvehjem glass homogenizer equipped with a Teflon pestle under ice-cold conditions. Homogenates (25% wet w/v) were centrifuged at 9000g for 20 min at 4 °C, to give the S9 fraction. S9 fraction was further centrifuged at 100,000g for 1 h at 4 °C. The resulting pellets were resuspended in 50 mM HEPES buffer (pH 7.4) containing 0.15 M KCl to prepare the microsomal fraction. Protein concentrations were determined by the method of Bradford using BSA as standard. S9 and the microsomal fraction were stored at −80 °C until use.
(§2) Hydrolysis of PNPA, PNPB, and caproyl-PL were performed in S9 and microsomal fractions of rat liver, testis, kidney and skin. Tissue samples were diluted with 50 mM HEPES (pH 7.4) buffer at appropriate protein concentrations and preincubated for 5 min at 37 °C. The hydrolysis reaction was initiated by the addition of test compounds dissolved in dimethyl sulfoxide (DMSO). The final concentration of DMSO was less than 0.5%, which has no effect on hydrolytic activity. The rate of hydrolysis of PNPA and PNPB (final concentrations 15–500 μM) was determined by the initial linear increase in absorbance of p-nitrophenol at 405 nm (V-530, JASCO Co., Tokyo, Japan).

[2] = Hydrolysis in rat skin S9 fraction; type: in vitro ADME; conditions: for Hydrolysis in skin S9 relative to liver microsomes (slower) / Vmax in skin S9 relative to liver microsomes (smaller) / Vmax/Km in skin S9 relative to liver microsomes (smaller): skin S9 vs liver microsomes
Procedure: After hair was carefully clipped and shaved, rats were sacrificed by exsanguination under ether anesthesia. Abdominal and dorsal skin was removed using a scalpel and dissection scissors. A few pieces of skin were stored in liquid nitrogen for extraction of total RNA. The skin was minced, mixed with five volumes of ice-cold 4-(2-hydroxyethyl)-1-piperazineethanesulfonic acid (HEPES) buffer (50 mM, pH 7.4) containing 0.15 M KCl, and homogenized using a Polytron (Kinematica, Lucerne, Switzerland) on ice. Whole homogenate was filtered through a funnel containing buffer-soaked cotton wool. After centrifugation of the skin homogenate at 9000g for 20 min at 4 °C, the supernatant fraction (S9) was obtained. Protein content was determined by the method described by Bradford using bovine serum albumin (BSA) as standard. The skin S9 was stored at −80 °C until use.
as §2
For the hydrolysis of caproyl-PL, the reaction was terminated by addition of 5 mL ethylacetate. After extraction of PL, as previously described, stereoselective determination was carried out using high-performance liquid chromatography (HPLC).

[3] = Hydrolysis in rat liver microsomes; type: in vitro ADME; conditions: pH 7.4; for Km: liver microsomes 20 μg/mL for PNPA, 10 μg/mL for PNPB; for Vmax: liver microsomes
Procedure: as §1, §2

[4] = Hydrolysis in rat kidney microsomes; type: in vitro ADME; conditions: pH 7.4; for Km: kidney microsomes 10 μg/mL; for Vmax: kidney microsomes
Procedure: as §1, §2

[5] = for Permeated amount after 12 h: full-thickness skin preincubated with 2 mM BNPP 1 h
Procedure: (§3) Fresh excised abdominal skin was used for these experiments. To strip skin, stratum corneum was removed by 20 successive strippings using cellophane adhesive tape (Nichiban K.K., Japan) according to conventional methods. The excised skin was mounted between half-cells with the dermal side in contact with receptor fluid (pH 6.8 phosphate-buffered saline (PBS) with 3% BSA). Receptor fluid flow rate was 5 mL/h. Two milliliters of drug suspension (drug amount = twice the amount required for saturation) in pH 4.0 acetate buffer was added to the donor chamber.
In an inhibition study for CES, skin mounted between the half-cells was preincubated with the dermal side in contact with 2 mM BNPP (dissolved in pH 6.8 PBS containing 3% BSA) for 1 h.
(§4) The in vitro permeation parameters were calculated from the penetration data using the following equations: Js = (KmDC)/δ = KpC and τ = δ^2/6D, where Js is steady state flux, Km is the solvent membrane partition coefficient of drug, D is diffusion coefficient, C is drug concentration in donor chamber, δ is thickness of rat skin, Kp is the permeability coefficient of drug, and τ represents lag time.

[6] = for Permeated amount after 12 h: labelled species found in receptor fluid
Procedure: as §3, §4

[7] = test system: esterases of rat skin S9; assay: Native PAGE esterase activity staining of rat skin S9 with 1-naphthylacetate; type: biochemical; conditions: native PAGE stained with 1-naphthylacetate
[8] = Nonenzymatic hydrolysis of caproyl-PL to PL in buffer; type: physicochemical
Procedure: Hydrolysis was greater under basic buffer conditions […]. […] The hydrolysis of caproyl-PL was <0.05% during the sampling period (1 h) at pH 6.8 in PBS containing 3% BSA.

[9] = cited from earlier work
[10] = hydrolysis, skin S9 300 μg/mL, 50 mM HEPES pH 7.4
[11] = after application of PL, full-thickness skin
[12] = after application of caproyl-PL, full-thickness skin, n = 6
[13] = after application of caproyl-PL, labelled species, full-thickness skin
[14] = after application of PL, full-thickness skin with BNPP
[15] = after application of caproyl-PL, labelled species
[16] = after application of caproyl-PL, labelled species, full-thickness skin with BNPP
[17] = after application of PL, stripped skin
[18] = after application of caproyl-PL, labelled species, stripped skin
[19] = after application of caproyl-PL, total of caproyl-PL and PL, full-thickness skin
[20] = caproyl-PL applied to full-thickness skin
[21] = after application of caproyl-PL, total, full-thickness skin with BNPP
[22] = after application of caproyl-PL, total, stripped skin

CCCC(=O)Oc1ccc([N+](=O)[O-])cc1 [PNPB, p-nitrophenylbutyrate]
Km [1]: 63.4 ± 13.9 µM
Vmax [1]: 2,978 ± 398 nmol/min/mg protein
Vmax [2, 10]: 460 ± 127 nmol/min/mg protein
Km ([2]; hydrolysis, skin S9 300 μg/mL, 50 mM HEPES pH 7.4, 37 °C, mean ± S.D. (n = 3/4), read-out: Km): 97.1 ± 30.2 µM
Hydrolysis in skin S9 relative to liver microsomes (slower) [2]: around 20 fold
Vmax in skin S9 relative to liver microsomes (smaller) [2]: 9 fold
Vmax/Km in skin S9 relative to liver microsomes (smaller) [2]: 24 fold
Km [3]: 37.1 ± 9.42 µM
Vmax [3]: 4,220 ± 521 nmol/min/mg protein
Km [4]: 97 ± 16.6 µM
Vmax [4]: 994 ± 286 nmol/min/mg protein

O=[N+]([O-])c1ccc(OP(=O)(O)Oc2ccc([N+](=O)[O-])cc2)cc1 [BNPP, bis-p-nitrophenyl phosphate]
PL conversion from caproyl-PL after treatment with BNPP ([5]; 2 mM BNPP on receiver side for 1 h, full-thickness skin): markedly decreased

CC(=O)Oc1ccc([N+](=O)[O-])cc1 [PNPA, p-nitrophenylacetate]
Km ([1]; male, rat): 34.6 ± 1.27 µM
Vmax [1]: 1,606 ± 333 nmol/min/mg protein
Vmax [2, 10]: 188 ± 30.3 nmol/min/mg protein
Km ([2]; rat, skin S9 fraction, hydrolysis, skin S9 300 μg/mL, 50 mM HEPES pH 7.4, 37 °C, mean ± S.D. (n = 3/4), read-out: Km): 55.5 ± 8.18 µM
Hydrolysis in skin S9 relative to liver microsomes (slower) [2]: around 20 fold
Vmax in skin S9 relative to liver microsomes (smaller) [2]: 19 fold
Vmax/Km in skin S9 relative to liver microsomes (smaller) [2]: 21 fold
Vmax [3]: 3,570 ± 810 nmol/min/mg protein
Km ([3]; rat): 57 ± 18.2 µM
Vmax [4]: 2,432 ± 497 nmol/min/mg protein
Km ([4]; rat): 268 ± 83.8 µM

CC(C)NCC(O)COc1cccc2ccccc12 (stereo not drawn) [PL, propranolol]
Lag time [6, 11]: 1.5 ± 0.56 h
Skin concentration at 12 h [6, 11]: 9,400 ± 380 nmol/g tissue
Steady state flux [6, 11]: 240 ± 94 nmol/h
Amount permeated after 12 h ([6]; after application of PL, full-thickness skin, n = 6): 2,600 ± 970 nmol
Permeated amount after 12 h [6, 12]: 140 ± 35 nmol
Lag time [6, 13]: 4.9 ± 1.1 h
Skin concentration at 12 h [6, 13]: 550 ± 120 nmol/g tissue
Steady state flux [6, 13]: 20 ± 6.2 nmol/h
Amount permeated after 12 h [5, 14]: 2,600 ± 990 nmol
Lag time [5, 14]: 0.84 ± 0.24 h
Skin concentration at 12 h [5, 14]: 9,900 ± 590 nmol/g tissue
Steady state flux [5, 14]: 240 ± 87 nmol/h
Permeated amount after 12 h [5, 15]: 21 ± 18 nmol
Lag time [5, 16]: 6.3 ± 0.93 h
Skin concentration at 12 h [5, 16]: 130 ± 7.7 nmol/g tissue
Steady state flux [5, 16]: 3.5 ± 2.6 nmol/h
Amount permeated after 12 h [17]: 17,000 ± 3,600 nmol
Lag time [17]: 1.4 ± 0.36 h
Skin concentration at 12 h [17]: 6,900 ± 3,700 nmol/g tissue
Lag time [18]: 3.6 ± 0.38 h
Permeated amount after 12 h [18]: 190 ± 55 nmol
Skin concentration at 12 h [18]: 870 ± 44 nmol/g tissue
Steady state flux [18]: 22 ± 6.4 nmol/h

CCN(CC)C(C)CN1c2ccccc2Sc2ccccc21 (stereo not drawn) [ethopropazine]
Inhibition of formation of esterase bands of skin S9 [7]: not inhibited

CCCCCC(=O)OC(CNC(C)C)COc1cccc2ccccc12.Cl (stereo not drawn) [Caproyl-PL, O-caproyl-PL hydrochloride]
Nonenzymatic hydrolysis of caproyl-PL to PL ([8]; in 12 h, pH 4.0 acetate buffer): < 0.1%
Nonenzymatic hydrolysis of caproyl-PL ([8]; sampling period 1 h, pH 6.8 PBS containing 3% BSA): < 0.05%
Skin concentration of caproyl-PL relative to PL (higher) ([6]; 12 h after dosing caproyl-PL, full-thickness skin): 3.5 fold
Permeated amount after 12 h [6, 12]: 1.7 ± 1.4 nmol
Lag time [6, 13]: 7.0 ± 0.78 h
Skin concentration at 12 h [6, 13]: 1,900 ± 630 nmol/g tissue
Steady state flux [6, 13]: 0.40 ± 0.28 nmol/h
Skin concentration at 12 h ([6]; after application of caproyl-PL, labelled species, full-thickness skin, listed as caproyl-PL): 1900 ± 630 nmol/g tissue
Lag time, Total [6, 19]: 4.9 h and 4.9 ± 1.1 h
Permeated amount after 12 h, Total [6, 19]: 140 ± 33 nmol
Skin concentration at 12 h, Total [6, 19]: 2,400 ± 780 nmol/g tissue
Steady state flux, Total [6, 19]: 20 ± 6.1 nmol/h
Predicted concentration of caproyl-PL in viable epidermis and dermis ([6]; after application to full-thickness skin, estimated from flux and permeation clearance): about 500 nmol/g tissue
Dose retained in the stratum corneum [6, 20]: 75%
Dose transferred into viable skin [6, 20]: 25%
Predicted concentration in viable epidermis and dermis relative to Km value (higher) ([6]; full-thickness skin): 25 fold
log PC ([9]; between 1-octanol and pH 4.0 phosphate buffer, method and reference not given): 2.3
pKa ([9]; stated in discussion, method and reference not given): 9.1
Constant concentration in donor compartment (suspension) ([9]; suspension in pH 4.0 acetate buffer): 6.4 mM
Vmax ([2]; hydrolysis of caproyl-PL in rat skin S9): 9.24 ± 2.95 nmol/min/mg S9 protein
Km ([2]; hydrolysis of caproyl-PL in rat skin S9, read-out: Km value): 19.7 ± 5.36 µM
Hydrolysis in skin S9 relative to liver microsomes (slower) [2]: 20 fold
Permeated amount after 12 h [5, 15]: 3.9 ± 3.4 nmol
Lag time [5, 16]: 8.3 ± 1.2 h
Skin concentration at 12 h [5, 16]: 2,100 ± 220 nmol/g tissue
Steady state flux [5, 16]: 0.83 ± 0.65 nmol/h
Lag time, Total [5, 21]: 6.4 ± 0.92 h
Permeated amount after 12 h, Total [5, 21]: 25 ± 21 nmol
Skin concentration at 12 h, Total [5, 21]: 2,200 ± 230 nmol/g tissue
Steady state flux, Total [5, 21]: 4.1 ± 3.1 nmol/h
Permeated amount, steady state flux and Kp value of intact caproyl-PL, increase by treatment with BNPP ([5]; full-thickness skin with vs without BNPP): 2 fold
Steady-state flux and Kp values of intact caproyl-PL in stripped skin relative to full-thickness skin (greater) (after application of caproyl-PL): 6 fold
Lag time [18]: 4.7 ± 1.7 h
Permeated amount after 12 h [18]: 12 ± 13 nmol
Skin concentration at 12 h [18]: 3,200 ± 580 nmol/g tissue
Steady state flux [18]: 2.4 ± 0.98 nmol/h
Skin concentration at 12 h (after application of caproyl-PL, labelled species, stripped skin, listed as caproyl-PL): 3200 ± 580 nmol/g tissue
Permeated amount after 12 h, Total (after application of caproyl-PL, total of caproyl-PL and PL, stripped skin): 200 ± 50 nmol
Lag time, Total [22]: 3.6 ± 0.43 h
Skin concentration at 12 h, Total [22]: 4,100 ± 600 nmol/g tissue
Steady state flux, Total [22]: 23 ± 5.5 nmol/h
Permeation clearance from viable skin to receptor fluid (calculated from steady-state flux and cutaneous concentration in stripped skin): 0.75 mg tissue/h
Concentration of caproyl-PL in stripped skin relative to Km value (higher) (vs Km in skin S9): 160 fold
